Residue numbers refer to the chain shown, from its start. Like-named read-outs stand apart in the source and are kept apart here.
How the values were obtained:
rat M1 N110A receptor = target: T1, rat M1 N110A receptor (Rattus norvegicus, UniProt P08482, N110A); assay: R-SAT functional assay, N110A mutant; assay type: cell-based; details: for Shift / EC50 / Eff (%): Table 3; for Shift: EC50 N110A divided by EC50 wild-type; for Eff (%): maximum response, normalized
T1 construct: expressed in transfected cells; host or cells: NIH-3T3
T1 sequence (P08482 1-460 N110A): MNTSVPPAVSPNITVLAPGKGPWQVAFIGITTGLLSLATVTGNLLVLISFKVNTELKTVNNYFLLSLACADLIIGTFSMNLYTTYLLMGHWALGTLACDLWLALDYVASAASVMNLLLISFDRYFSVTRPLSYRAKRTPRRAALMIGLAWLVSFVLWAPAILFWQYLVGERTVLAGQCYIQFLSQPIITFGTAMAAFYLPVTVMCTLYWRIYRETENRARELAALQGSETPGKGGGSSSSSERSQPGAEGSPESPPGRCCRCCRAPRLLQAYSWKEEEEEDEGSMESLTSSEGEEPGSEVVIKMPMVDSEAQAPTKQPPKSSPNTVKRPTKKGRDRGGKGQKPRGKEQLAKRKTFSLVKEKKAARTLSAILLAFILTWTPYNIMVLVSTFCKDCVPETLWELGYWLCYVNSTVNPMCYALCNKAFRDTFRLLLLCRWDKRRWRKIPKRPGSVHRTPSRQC
Experimental: (§1) Cells are co-transfected for 18 h with DMEM containing 0.08 micrograms/ml of an expression vector for the expression of the mutant receptor and 0.3 micrograms/ml pSI-Bgal (Promega, Madison Wis.), and 0.5% v/v Polyfect (Qiagen, Valencia Calif.), as recommended by the manufacturer. On day three, the medium is replaced with DMEM containing 1% PSG, 0.5% calf serum, 2% cyto-sf3 (Kemp Biotechnologies, Frederick, Md.), and varying concentrations of the compounds to be tested. Cells are grown in a humidified atmosphere with 5% ambient CO2 for 5 days. The media is removed from the plates, and beta-galactosidase activity is measured by the addition of o-nitrophenyl -d-galactopyranoside in phosphate-buffered saline with 5% Nonidet P-40. […] The following equation is fitted to the data using GraphPad Prism software (San Diego, Calif.):
(§2) NIH-3T3 cells were grown in 96-well tissue culture plates to 70 to 80% confluence in Dulbecco's modified essential media (DMEM) supplemented with 100 units/ml penicillin, 100 micrograms/ml streptomycin, 0.3 mg/ml L-glutamine (1% PSG, GIBCO) and 10% calf serum (Sigma-Aldrich). Cells were transfected for 18 h with DMEM containing 0.08 micrograms/ml receptor DNA and 0.3 micrograms/ml pSI-Bgal (Promega, Madison Wis.), 0.5% v/v Polyfect (Qiagen, Valencia Calif.). Medium was replaced with DMEM containing 1% PSG, 0.5% calf serum, 2% cyto-sf3 (Kemp Biotechnologies, Frederick, Md.), and varying concentrations of ligand. […] Cells were grown in a humidified atmosphere with 5% ambient CO2 for 5 days. Medium was removed from the plates, and beta-galactosidase activity was measured by the addition of o-nitrophenyl -d-galactopyranoside in phosphate-buffered saline with 5% Nonidet P-40.

rat M1 Y381A receptor = target: T2, rat M1 Y381A receptor (Rattus norvegicus, UniProt P08482, Y381A); assay: R-SAT functional assay, Y381A mutant; assay type: cell-based; details: M1 Y381A; for EC50: read-out: pEC50 (converted)
T2 construct: expressed in transfected cells; host or cells: NIH-3T3
T2 sequence (P08482 1-460 Y381A): T1 sequence (P08482 1-460 N110A) with A110N, Y381A
Experimental: as §1, §2
Receptor Selection and Amplification (R-SAT™) Assays: R-SAT™ functional assays were carried out as follows. NIH-3T3 cells were grown in 96-well tissue culture plates to 70 to 80% confluence in Dulbecco's modified essential media (DMEM) supplemented with 100 units/ml penicillin, 100 micrograms/ml streptomycin, 0.3 mg/ml L-glutamine (1% PSG, GIBCO) and 10% calf serum (Sigma-Aldrich). Cells were transfected for 18 h with DMEM containing 0.08 micrograms/ml receptor DNA and 0.3 micrograms/ml pSI-Bgal (Promega, Madison Wis.), 0.5% v/v Polyfect (Qiagen, Valencia Calif.). The transfected cells were frozen away. Cells were thawed and added to 96 well plates with DMEM containing 1% PSG, 0.5% calf serum, 2% cyto-sf3 (Kemp Biotechnologies, Frederick, Md.), and varying concentrations of ligand.
In an effort to further characterize monoamine modulators, we used a panel of mutant muscarininc M1 receptors to analyze the activity and potency of orthosteric modulators and various allosteric modulators at those receptors.

[1] = Table 4, maximum response relative to xanomeline
[2] = Table 10, maximum response relative to AC-42

decrease in potency relative to wild-type (rat M1 N110A receptor; R-SAT, N110A) [fold]	Shift (rat M1 N110A receptor)	EC50 (rat M1 N110A receptor; N110A) [nM]	Eff (%) (rat M1 N110A receptor; N110A)	% Eff (rat M1 Y381A receptor; [1]) [%]	EC50 (rat M1 Y381A receptor; Table 4) [nM]	EC50 (rat M1 Y381A receptor; Table 10, NA = non-active) [nM]	% Eff (rat M1 Y381A receptor; [2]) [%]	Compound
30	43	631	38 ± 6	60	79.4	63.1	168	CCCCC1CCN(CCCN2C(=O)COc3cc(F)ccc32)CC1 [AC-260584, 4-[3-(4-Butyl-piperidin-1-yl)-propyl]-7-fluoro-4H-benzo [1,4]oxazin-3-one]
–	21	794	66 ± 16	95	158	158	330	Clc1ccc2c(c1)N=C(N1CCNCC1)c1ccccc1N2 [NDMC, 8-chloro-11-(1-piperazinyl)-5H-dibenzo [b,e] [1,4] diazepine]

Compound	decrease in potency relative to wild-type (rat M1 N110A receptor; R-SAT, N110A) [fold]	Shift (rat M1 N110A receptor)	EC50 (rat M1 N110A receptor; N110A) [nM]	Eff (%) (rat M1 N110A receptor; N110A)	% Eff (rat M1 Y381A receptor; [1]) [%]	EC50 (rat M1 Y381A receptor; Table 4) [nM]	EC50 (rat M1 Y381A receptor; Table 10, NA = non-active) [nM]	% Eff (rat M1 Y381A receptor; [2]) [%]
CCCCC1CCN(CCCC(=O)c2ccccc2C)CC1 [AC-42, 4-n-butyl-1-[4-(2-methylphenyl)-4-oxo-1-butyl] piperidine hydrogen chloride]	–	–	–	7 ± 1	46	316	3160	102
